One block for each molecule: values may come before it. No end group written: not given here.
Columns and labels:
Y2 receptor = biological target: T1, Y2 receptor (Mus musculus, UniProt P97295); experiment: Y2R antagonist study: oral spray of BIIE0246/PYY3-36 mixture, 2 hr FI after 24 hr fast; type: in vivo
T1 construct: from tissue; host or cells: live mice; oral mucosa / tongue epithelium
T1 sequence (P97295 1-381): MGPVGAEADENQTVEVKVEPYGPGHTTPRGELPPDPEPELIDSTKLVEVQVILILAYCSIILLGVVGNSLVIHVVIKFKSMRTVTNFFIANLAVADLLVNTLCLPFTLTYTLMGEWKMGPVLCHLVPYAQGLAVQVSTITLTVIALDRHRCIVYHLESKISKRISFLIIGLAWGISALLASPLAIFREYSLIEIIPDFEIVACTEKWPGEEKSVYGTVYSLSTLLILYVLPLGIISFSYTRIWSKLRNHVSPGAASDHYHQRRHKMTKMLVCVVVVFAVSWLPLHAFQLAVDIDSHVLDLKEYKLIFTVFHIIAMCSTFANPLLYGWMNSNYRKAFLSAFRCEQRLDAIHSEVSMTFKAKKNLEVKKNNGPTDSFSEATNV
Description: Direct proof of PYY3-36/Y2R interaction was obtained by utilizing a selective Y2 receptor antagonist BIIE0246 [26]. The antagonist and PYY3-36 agonist (12 mg/100 g BW) were mixed at the 50∶1 molar ratio, respectively, and the mixture was used to treat fasted mice as described above (Fig. 6H).
(§1) One ml total volume sterile vials were obtained from Sephora. Murine PYY3-36 (Bachem) was diluted in sterile H2O. All 8–10 weeks old mice were individually housed. Mice were conditioned to the oral spray with vehicle after 24 hours fast on three separate occasions. Groups were randomized by FI and BW. […] The applied dose was estimated using calculated average volume ([…]) delivered per puff. Food was provided 10 min after the spray was applied and the amount consumed was measured at either 1 hr after the treatment, or at several time points (1, 2, 4, 6, 12, 18, and 24 hours). Taking into account the nocturnal feeding pattern, the experiment was conducted during the night with the first measurement taken at 2000 hrs. Each experiment was done at least 3 times in a crossover manner with 8 mice per group. For the Y2R antagonist study, BIIE0246 compound (Tocris Bioscience, Ellisville, MO) was dissolved in 100% EtOH (0.2 mM) and the stock solution was mixed with PYY3-36 aqueous solution at the 50∶1 molar ratio (BIIE0246/PYY3-36) with the final concentration of 2% EtOH in the mixture. […]

[1] = Concentration of PYY3-36 in plasma after oral spray or i.p. injection (RIA); type: in vivo, mouse; settings: PYY KO mice, n = 10 per group
Description: To exclude potential interference with circulating background PYY in the plasma, we used PYY KO mice.
Blood was collected from facial vein puncture into EDTA-coated tubes (Capiject) containing protease inhibitors as described for saliva collection. Plasma samples were frozen at −80°C until analyzed.
(§2) PYY3-36 from saliva and plasma was measured by PYY3-36 RIA kit (Phoenix Pharmaceuticals). The identification of PYY3-36 from human saliva was performed by reverse-phase high performance liquid chromatography (RP-HPLC) followed by Matrix-Assisted Laser Desorption Ionization – Time of Flight (MALDI-TOF) mass spectrometry (MS). PYY3-36 synthetic peptide (Bachem) was used for calibration of all purification steps. Briefly, saliva was pre-purified using a Sep-Pak C18 cartridge (Waters) followed by purification on RP-HPLC uBondapak C18 column (Waters) as described. The PYY3-36-containing fraction was collected, air dried and reconstituted in 0.1% formic acid in 50% acetonitrile/water prior to analysis with MALDI-TOF as described, [40].

PYY KO mice = experiment: Oral spray satiation study, FI over 24 hours after single treatment, PYY KO mice; type: in vivo, mouse; settings: n = 8/group
Description: To investigate the duration of action of orally applied PYY3-36 we conducted standard satiation studies in C57Bl/6J as well as in PYY KO mice measuring FI over 24 hours after single treatment.
as §1, with “mixture. Prior to this experiment, mice were conditioned to 2% EtOH spray on three separate occasions.” for “mixture.”

DIO C57Bl/6J mice = experiment: Repeated once-a-day oral spray in DIO mice fed high fat diet ad libitum (FI and BW); type: in vivo, mouse; settings: daily oral spray 18 mg/100 g, n = 9 per group
Description: Figure 6 Oral PYY3-36 augmentation therapy. […] Experiments for each peptide were conducted separately and the results were integrated in one graph as fractions of average amount of FI consumed by the control group. […] (B) Dose-response effect of PYY3-36 on 2 hr FI vs. control (n = 8 each group). (C) Effect of PYY3-36 oral spray on FI in C57Bl/6J mice measured at 1, 2, 6, 12, 18, and 24 hr post treatment (n = 8/group). (D) Effect of PYY3-36 oral spray on FI in PYY^-/- mice measured at 1, 2, 6, 12, 18, and 24 hr post treatment (n = 8/group). (E) Average 24-hr FI in DIO mice treated with daily PYY3-36 OS (18 mg/100 g). (F) Effect of daily PYY3-36 OS (18 mg/100 g) treatment on BW change in DIO C57Bl/6J mice (n = 9 per each group). (G) Concentration of PYY3-36 in plasma of PYY KO mice 10 min after PYY3-36 (18 mg/100 g BW), or control oral spray vs. PYY3-36 injected i.p. (6 mg/100 g BW) (n = 10 per group). (H) Effect of Y2R specific antagonist BIIE0246 on anorexigenic action of PYY3-36 (n = 8 per each group) measured as 2 hr FI after 24 hr fast.*P<0.05, **P<0.01.
Because of the sustained 24-hr effect, we tested whether repeated once-a-day treatment would also affect the FI and BW accumulation over extended period of time when animals were fed high fat (HF) diet ad libitum.

[2] = PYY3-36 in saliva after i.p. injection (RIA); type: in vivo, mouse; settings: male C57Bl/6J mice, 10 min post injection, n = 10 per group
Description: Some proteins enter saliva from salivary glands where they are expressed and secreted in an exocrine fashion via zymogen granules. Other peptides can enter saliva as a transudate from serum. To establish the source of salivary PYY3-36 we asked whether peptide circulating in a bloodstream can be transported into saliva. To this end, mice were injected intraperitoneally (i.p.) with increasing doses of murine synthetic PYY3-36 (Fig. 1F).
Salivation was stimulated as described earlier. Whole saliva was collected for 5 min from the oral cavity into Eppendorf tubes containing 5000 U Kallikrein inhibitor (Biomedicals) and 50 mM DPP-IV inhibitor (Linco Research). Saliva samples were frozen at −80°C until analyzed.
as §2, with “The PYY3-36-containing fraction was collected, air dried and reconstituted in 0.1% formic acid in 50% acetonitrile/water prior to analysis with MALDI-TOF as described, [40].” left out

C57Bl/6J mice = experiment: Oral spray acute augmentation: food intake after 24 hours fasting; type: in vivo, mouse
Description: Figure 6 Oral PYY3-36 augmentation therapy. […] (B) Dose-response effect of PYY3-36 on 2 hr FI vs. control (n = 8 each group). (C) Effect of PYY3-36 oral spray on FI in C57Bl/6J mice measured at 1, 2, 6, 12, 18, and 24 hr post treatment (n = 8/group). (D) Effect of PYY3-36 oral spray on FI in PYY^-/- mice measured at 1, 2, 6, 12, 18, and 24 hr post treatment (n = 8/group). (E) Average 24-hr FI in DIO mice treated with daily PYY3-36 OS (18 mg/100 g). (F) Effect of daily PYY3-36 OS (18 mg/100 g) treatment on BW change in DIO C57Bl/6J mice (n = 9 per each group). (G) Concentration of PYY3-36 in plasma of PYY KO mice 10 min after PYY3-36 (18 mg/100 g BW), or control oral spray vs. PYY3-36 injected i.p. (6 mg/100 g BW) (n = 10 per group).
One ml total volume sterile vials were obtained from Sephora. Murine PYY3-36 (Bachem) was diluted in sterile H2O. All 8–10 weeks old mice were individually housed. Mice were conditioned to the oral spray with vehicle after 24 hours fast on three separate occasions. Groups were randomized by FI and BW. […] The applied dose was estimated using calculated average volume ([…]) delivered per puff. Food was provided 10 min after the spray was applied and the amount consumed was measured at either 1 hr after the treatment, or at several time points (1, 2, 4, 6, 12, 18, and 24 hours). Taking into account the nocturnal feeding pattern, the experiment was conducted during the night with the first measurement taken at 2000 hrs. Each experiment was done at least 3 times in a crossover manner with 8 mice per group. For the Y2R antagonist study, BIIE0246 compound (Tocris Bioscience, Ellisville, MO) was dissolved in 100% EtOH (0.2 mM) and the stock solution was mixed with PYY3-36 aqueous solution at the 50∶1 molar ratio (BIIE0246/PYY3-36) with the final concentration of 2% EtOH in the mixture. Prior to this experiment, mice were conditioned to 2% EtOH spray on three separate occasions. Wherever practical, the behavioral experiments were conducted in a blind fashion with the personnel uninformed about the treatment regimen.

rodents = settings: i.p., ref [16]; cited from earlier work

effect of antagonist alone on 2 hr FI (Y2 receptor; BIIE0246 alone, data not shown): no effect on 2 hr FI
Molecule: N=C(N)NCCC[C@H](NC(=O)CC1(CC(=O)N2CCN(C3c4ccccc4NC(=O)c4ccccc43)CC2)CCCC1)C(=O)NCCn1c(=O)n(-c2ccccc2)n(-c2ccccc2)c1=O (stereo partly shown) [BIIE0246]
effect of antagonist on the anorexigenic action of PYY3-36, 2 hr FI (Y2 receptor; BIIE0246 mixed with PYY3-36 (12 mg/100 g BW) at 50:1 molar ratio, 2% EtOH, after 24 hr fast, n = 8 per group): completely ablated the anorexigenic effect of PYY3-36

Molecule: Peptide YY3-36 [PYY3-36]
PYY3-36 in plasma 10 min after i.p. injection ([1]; i.p. 6 mg/100g BW): significant increase in PYY3-36 found in plasma
PYY3-36 in plasma 10 min after oral spray ([1]; oral spray 18 mg/100 g BW): no detectable PYY3-36 in the plasma
response of FI over 24 hours to the low dose (PYY KO mice; PYY KO mice, low dose 3 mg/100 g BW): responded to the treatment in significant manner observed after 18 and 24 hrs post experiment
duration of anorexigenic response, FI over 24 hours after single treatment (PYY KO mice; PYY-/- mice, high dose 12 mg/100 g BW): significant until the next treatment 24 hrs later
BW accumulation (DIO C57Bl/6J mice; DIO C57Bl/6J mice, HF diet ad libitum): retarded BW accumulation which became significantly on day 17th
average 24-hr FI of HF food (DIO C57Bl/6J mice; DIO mice): significantly less HF food
PYY3-36 in saliva after i.p. injection of increasing doses [2]: significant relationship between the injected dose and the concentration of the peptide detected in saliva
duration of anorexigenic response, FI over 24 hours after single treatment (C57Bl/6J mice; C57Bl/6J mice, oral spray, high dose 12 mg/100 g BW, n = 8/group): significant until the next treatment 24 hrs later
response of FI over 24 hours to the low dose (C57Bl/6J mice; C57Bl/6J mice, oral spray, low dose 3 mg/100 g BW, n = 8/group): only PYY KO mice responded
one hour FI as % of control values at the maximum applied dose (C57Bl/6J mice; oral spray, dose-response, 12 mg/100 g, after 24 hr fast, n = 8 each group (legend Fig. 6B says 2 hr FI)): 81%
food consumed less than the control group, 1 hour FI (C57Bl/6J mice; oral spray, single puff, 3 mg/100 g BW, after 24 hours of fasting, food given 10 min after spray, average, n = 10 per group, C57Bl/6J mice): 12.3%
FI after intraperitoneal injection (rodents): dose-dependent reduction in FI

Molecule: amylin (KCNTATCATQRLANFLVRSSNNLGPVLPPTNVGSNTY; ends and bridges not checked; cysteine pairing not given here; UniProt P12968 38-74, looked up) [endocrine peptide tested by oral spray application]
effect of oral spray application on FI (C57Bl/6J mice; oral spray, similar approach, data not shown): no change of FI

Molecule: glucagon-like peptide-1 (HAEGTFTSDVSSYLEGQAAKEFIAWLVKGR; ends and bridges not checked; UniProt P55095 98-127, looked up) [GLP-1]
effect of oral spray on 1 hour FI (satiation) vs control oral spray (C57Bl/6J mice; oral spray after 24 hours fasting, GLP-1 3 mg/100 g BW, Exendin-4 10 mg/100 g BW, n = 10 each group): induced stronger satiation
